Counter-ions that a name gives are not always drawn.

The target of one experiment is LsrK (Salmonella typhimurium, UniProt Q8ZKQ6). The experiment is described as follows: biochemical. Format: biochemical, S. typhimurium.
LsrK, sequence (Q8ZKQ6 whole entry): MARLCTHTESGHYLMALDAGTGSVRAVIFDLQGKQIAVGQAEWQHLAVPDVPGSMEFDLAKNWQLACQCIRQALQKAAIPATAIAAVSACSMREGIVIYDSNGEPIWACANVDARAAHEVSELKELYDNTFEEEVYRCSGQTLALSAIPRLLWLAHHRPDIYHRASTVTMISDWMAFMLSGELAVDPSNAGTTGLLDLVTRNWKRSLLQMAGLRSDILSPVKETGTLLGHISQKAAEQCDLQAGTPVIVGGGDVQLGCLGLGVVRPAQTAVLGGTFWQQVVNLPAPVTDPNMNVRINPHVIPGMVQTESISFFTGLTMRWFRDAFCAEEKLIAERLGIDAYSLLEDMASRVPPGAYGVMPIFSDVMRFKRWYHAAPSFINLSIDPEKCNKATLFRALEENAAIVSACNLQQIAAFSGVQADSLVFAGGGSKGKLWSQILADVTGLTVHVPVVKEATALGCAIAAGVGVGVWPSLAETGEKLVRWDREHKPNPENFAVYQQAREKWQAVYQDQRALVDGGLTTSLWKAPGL
Conditions: not given
As to `NCC(=O)c1ccccc1` [PHENACYLAMINE HYDROCHLORIDE], the inhibition (usually the drop in the measured response relative to a control, in per cent) at 50 µM was 1%.

Regarding `[H]/N=C(/N)N/C(=N/[H])NCCc1ccccc1` [PHENFORMIN HYDROCHLORIDE], the inhibition at 50 µM stood at 0%.

Turning to `CN(C)CCC(c1ccccc1)c1ccccn1` (stereo not shown) [PHENIRAMINE MALEATE], the inhibition at 50 µM came out at 3%.

Turning to `O=C1OC(c2ccc(O)cc2)(c2ccc(O)cc2)c2ccccc21` [PHENOLPHTHALEIN], the inhibition at 50 µM was determined as 0%.

Regarding `CC(COc1ccccc1)N(CCCl)Cc1ccccc1` (stereo not shown) [PHENOXYBENZAMINE HYDROCHLORIDE], the inhibition at 50 µM was 1%.

Regarding `CC(C)(N)Cc1ccccc1` [PHENTERMINE], the inhibition at 50 µM was 15%.

With `Cc1ccc(N(CC2=NCCN2)c2cccc(O)c2)cc1` [PHENTOLAMINE HYDROCHLORIDE], the inhibition at 50 µM worked out at 0%.

`CCCCC1C(=O)N(c2ccccc2)N(c2ccccc2)C1=O` [PHENYLBUTAZONE]: the inhibition at 50 µM is 0%.

`O=C(CCc1ccc(O)cc1)c1c(O)cc(O)cc1O` [PHLORETIN]: the inhibition at 50 µM stood at 60%.

`O=C(O)c1ccccc1C(=O)Nc1ccc(S(=O)(=O)Nc2nccs2)cc1` [PHTHALYLSULFATHIAZOLE]: the inhibition at 50 µM was determined as 1%.

As to `CNC(=O)Oc1ccc2c(c1)[C@]1(C)CCN(C)[C@@H]1N2C` [PHYSOSTIGMINE SALICYLATE], the inhibition at 50 µM stood at 1%.

Turning to `CC(C)(O)[C@@H]1[C@H]2OC(=O)[C@@H]1[C@]1(O)C[C@H]3O[C@]34C(=O)O[C@H]2[C@]14C` [PICROTIN], the inhibition at 50 µM amounted to 1%.

Consider `CN1CCC(=C2c3ccccc3Sc3ccccc32)CC1` [PIMETHIXENE MALEATE], for which the inhibition at 50 µM was found to be 0%.

With `CCc1ccc(CCOc2ccc(CC3SC(=O)NC3=O)cc2)nc1` (stereo not shown) [PIOGLITAZONE HYDROCHLORIDE], the inhibition at 50 µM stood at 0%.

Turning to `O=C(O)/C=C/C=C/c1ccc2c(c1)OCO2` [PIPERIC ACID], the inhibition at 50 µM was 0%.

With `O=C(/C=C/C=C/c1ccc2c(c1)OCO2)N1CCCCC1` [PIPERINE], the inhibition at 50 µM came to 1%.

On to `O=C(O)c1ccc2c(c1)OCO2` [PIPERONYLIC ACID], for which the inhibition at 50 µM amounted to 1%.

Regarding `CCn1cc(C(=O)O)c(=O)c2cnc(N3CCCC3)nc21` [PIROMIDIC ACID], the inhibition at 50 µM is 19%.

For `O=C(O)[C@@H](O)[C@](O)(Cc1ccc(O)cc1)C(=O)O` [PISCIDIC ACID], the inhibition at 50 µM came out at 2%.

Turning to `CC(C)=CCc1c2c(c3occ(-c4ccc(O)c(O)c4)c(=O)c3c1O)C=CC(C)(C)O2` [POMIFERIN], the inhibition at 50 µM is 2%.

In the case of `C[n+]1ccccc1/C=N/O` [PRALIDOXIME CHLORIDE], the inhibition at 50 µM came to 1%.

Regarding `O=C(C1CCCCC1)N1CC(=O)N2CCc3ccccc3C2C1` (stereo not shown) [PRAZIQUANTEL], the inhibition at 50 µM was 0%.

Take `CC(=O)OCC(=O)[C@@]1(O)CC[C@H]2[C@@H]3CCC4=CC(=O)C=C[C@]4(C)[C@H]3[C@@H](O)C[C@@]21C` [PREDNISOLONE ACETATE]: the inhibition at 50 µM amounted to 0%.

`CC(=O)[C@H]1CC[C@H]2[C@@H]3CC=C4C[C@@H](OC(=O)CCC(=O)O)CC[C@]4(C)[C@H]3CC[C@]12C` [PREGNENOLONE SUCCINATE]: the inhibition at 50 µM was found to be 4%.

As to `OC(CCN1CCCCC1)(c1ccccc1)c1ccccc1` [PRIDINOL METHANESULFONATE], the inhibition at 50 µM came to 1%.

Consider `COc1cc(NC(C)CCCN)c2ncccc2c1` (stereo not shown) [PRIMAQUINE DIPHOSPHATE], for which the inhibition at 50 µM was found to be 89%.

In the case of `COC(=O)[C@]1(C)CC[C@]2(C)CC[C@]3(C)C4=CC=C5C(=CC(=O)C(O)=C5C)[C@]4(C)CC[C@@]3(C)[C@@H]2C1` [PRISTIMERIN], the inhibition at 50 µM worked out at 7%.

For the compound `OC(CCN1CCCC1)(c1ccccc1)C1CCCCC1` (stereo not shown) [PROCYCLIDINE HYDROCHLORIDE], the inhibition at 50 µM was 0%.

`CN(C)CCCN1c2ccccc2Sc2ccccc21` [PROMAZINE HYDROCHLORIDE]: the inhibition at 50 µM was 3%.

Take `CC(C)c1cccc(C(C)C)c1O` [PROPOFOL]: the inhibition at 50 µM is 7%.

For `C=CC1=C(C)c2cc3[nH]c(cc4nc(cc5[nH]c(cc1n2)c(C)c5CCC(=O)O)C(CCC(=O)O)=C4C)c(C)c3C=C` [PROTOPORPHYRIN IX], the IC50 (in general, the point on the concentration scale where inhibition reaches its midpoint) was found to be 9 µM and the inhibition at 50 µM stood at 100%.

Take `CC1=CCc2c(cc3oc(C)cc(=O)c3c2O)OC1` [PTAEROXYLIN]: the inhibition at 50 µM came out at 1%.

On to `COc1ccc(C[C@H](N)C(=O)N[C@H]2[C@@H](O)[C@H](n3cnc4c(N(C)C)ncnc43)O[C@@H]2CO)cc1` [PUROMYCIN HYDROCHLORIDE], for which the inhibition at 50 µM is 0%.

As to `O=C1c2ccccc2C(=O)c2c(O)c(O)cc(O)c21` [PURPURIN], the inhibition at 50 µM worked out at 45%.

Regarding `O=c1c(O)cccc2cc(O)c(O)c(O)c12` [PURPUROGALLIN], the inhibition at 50 µM came to 89%.

Take `CN1CCCN=C1/C=C/c1cccs1` [PYRANTEL PAMOATE]: the inhibition at 50 µM was found to be 101%.

For the compound `Cc1ncc(CSSCc2cnc(C)c(O)c2CO)c(CO)c1O` [PYRITINOL], the inhibition at 50 µM came out at 1%.

As for `CC[C@@]1(O)C[C@H](O[C@H]2C[C@H](N(C)C)[C@H](O)[C@H](C)O2)c2c(cc3c(c2O)C(=O)c2c(O)ccc(O)c2C3=O)[C@H]1C(=O)OC` [PYRROMYCIN], the inhibition at 50 µM was determined as 1%.

In the case of `O=c1c(O)c(-c2ccc(O)c(O)c2)oc2cc(O)cc(O)c12` [QUERCETIN], the inhibition at 50 µM turned out to be 22%.

`C[C@@H]1O[C@@H](Oc2c(-c3ccc(O)c(O)c3)oc3cc(O)cc(O)c3c2=O)[C@H](O)[C@H](O)[C@H]1O` [QUERCITRIN]: the inhibition at 50 µM is 2%.

On to `CCN(CC)CCCC(C)Nc1c2ccc(Cl)cc2nc2ccc(OC)cc12` (stereo not shown) [QUINACRINE HYDROCHLORIDE], for which the inhibition at 50 µM is 3%.

Take `O=C(O)[C@]1(O)C[C@@H](O)[C@@H](O)[C@H](O)C1` [QUINIC ACID]: the inhibition at 50 µM was 0%.

Turning to `C=C[C@H]1CN2CC[C@H]1C[C@H]2[C@H](OC(=O)OCC)c1ccnc2ccc(OC)cc12` [QUININE ETHYL CARBONATE], the inhibition at 50 µM was found to be 3%.

On to `COCCCOc1ccnc(C[S+]([O-])c2nc3ccccc3[nH]2)c1C` (stereo not shown) [RABEPRAZOLE SODIUM], for which the inhibition at 50 µM was 0%.

`O=C(c1ccc(OCCN2CCCCC2)cc1)c1c(-c2ccc(O)cc2)sc2cc(O)ccc12` [RALOXIFENE HYDROCHLORIDE]: the inhibition at 50 µM came out at 0%.

Turning to `CNC(=C[N+](=O)[O-])NCCSCc1ccc(CN(C)C)o1` [RANITIDINE], the inhibition at 50 µM came to 1%.

`COC(=O)[C@H]1[C@H]2C[C@@H]3c4[nH]c5cc(OC)ccc5c4CCN3C[C@H]2C[C@@H](OC(=O)c2cc(OC)c(OC)c(OC)c2)[C@@H]1OC` [RESERPINE]: the inhibition at 50 µM amounted to 1%.

Regarding `CC(=O)Oc1cccc(O)c1` [RESORCINOL MONOACETATE], the inhibition at 50 µM is 1%.

For the compound `COc1ccc(/C=C/c2cc(O)cc(O)c2)cc1` [RESVERATROL 4'-METHYL ETHER], the inhibition at 50 µM worked out at 2%.

`CC1=C(/C=C/C(C)=C/C=C/C(C)=C/CO)C(C)(C)CCC1` [RETINOL]: the inhibition at 50 µM was determined as 0%.

On to `CCCCCCCCCCCCCCCC(=O)OC/C=C(C)/C=C/C=C(C)/C=C/C1=C(C)CCCC1(C)C` [RETINYL PALMITATE], for which the inhibition at 50 µM was 15%.

On to `C[C@@H]1O[C@@H](O[C@H]2[C@H](Oc3cc(O)c4c(=O)cc(-c5ccc(O)cc5)oc4c3)O[C@H](CO)[C@@H](O)[C@@H]2O)[C@H](O)[C@H](O)[C@H]1O` [RHOIFOLIN], for which the inhibition at 50 µM came to 2%.

Consider `COC1=C(O)C(=O)c2c(cc3oc(C(C)=O)c(O)c3c2O)C1=O` [RHO[…]], for which the inhibition at 50 µM came out at 22%.

In the case of `NC(=O)c1ncn([C@@H]2O[C@H](CO)[C@@H](O)[C@H]2O)n1` [RIBAVIRIN], the inhibition at 50 µM amounted to 5%.

Consider `CO[C@H]1/C=C/O[C@@]2(C)Oc3c(C)c(O)c4c(O)c(c(/C=N/N5CCN(C)CC5)c(O)c4c3C2=O)NC(=O)/C(C)=C\C=C\[C@H](C)[C@H](O)[C@@H](C)[C@@H](O)[C@@H](C)[C@H](OC(C)=O)[C@@H]1C` [RIFAMPIN], for which the inhibition at 50 µM was 18%.

Consider `CO[C@H]1/C=C/O[C@@]2(C)Oc3c(C)c(O)c4c(O)c(c5c(nc6cc(C)ccn65)c4c3C2=O)NC(=O)/C(C)=C\C=C\[C@H](C)[C@H](O)[C@@H](C)[C@@H](O)[C@@H](C)[C@H](OC(C)=O)[C@@H]1C` [RIFAXIMIN], for which the inhibition at 50 µM was 1%.

As for `Cc1nc2sccn2c(=O)c1CCN1CCC(=C(c2ccc(F)cc2)c2ccc(F)cc2)CC1` [RITANSERIN], the inhibition at 50 µM is 3%.

As to `CN(C)CCc1c[nH]c2ccc(Cn3cncn3)cc12` [RIZATRIPTAN BENZOATE], the inhibition at 50 µM was determined as 1%.

Regarding `COc1ccc(-c2c(O)c3c(OC)c4c(cc3oc2=O)OC(C)(C)C=C4)cc1` [ROBUSTIC ACID], the inhibition at 50 µM was found to be 111%.

Take `COc1ccc(C2CNC(=O)C2)cc1OC1CCCC1` (stereo not shown) [ROLIPRAM]: the inhibition at 50 µM is 1%.

Take `CN(C)[C@@H]1C(O)=C(C(=O)NCN2CCCC2)C(=O)[C@@]2(O)C(O)=C3C(=O)c4c(O)cccc4[C@@](C)(O)[C@H]3C[C@@H]12` [ROLITETRACYCLINE]: the inhibition at 50 µM amounted to 5%.

The same experiment, now with this note: 50 µM.
For `CC(=O)c1c(O)cc(O)cc1O` [PHLORACETOPHENONE], the “Inhibition (%)” value came to 1.

Regarding `Cl.c1cnc(N2CCN(Cc3ccc4c(c3)OCO4)CC2)nc1` [PIRIBEDIL HYDROCHLORIDE], the “Inhibition (%)” value is 3.

In the case of `C[C@]12C=CC(=O)C=C1CC[C@@H]1[C@@H]2[C@@H](O)C[C@@]2(C)[C@H]1CC[C@]2(O)C(=O)COP(=O)([O-])[O-].[Na+].[Na+]` [PREDNISOLONE SODIUM PHOSPHATE], the “Inhibition (%)” value was found to be 0.

With `CNCCCC1c2ccccc2C=Cc2ccccc21.Cl` [PROTRYPTYLINE HYDROCHLORIDE], the “Inhibition (%)” value is on record as 1.

Regarding `O=c1cccc2ccc(O)c(O)c2c1O` [PYROGALLIN], the “Inhibition (%)” value is reported as 101.

As to `C=C(C)CCCC(C)CCOC(C)=O` (stereo not shown) [RHODINYL ACETATE], the “Inhibition (%)” value turned out to be 0.

As for `Cc1cc2nc3c(=O)[nH]c(=O)nc-3n(C[C@H](O)[C@H](O)[C@H](O)COP(=O)([O-])O)c2cc1C.[Na+]` [RIBOFLAVIN 5-PHOSPHATE SODIUM], the “Inhibition (%)” value was 1.

As to `O=P([O-])(O)C(O)(Cc1cccnc1)P(=O)(O)O.[Na+]` [RISEDRONATE SODIUM HYDRATE], the “Inhibition (%)” value came out at 2.

The values above are taken from article PMC6627609, “Targeting Quorum Sensing: High-Throughput Screening to Identify Novel LsrK Inhibitors” (International Journal of Molecular Sciences, 2019).
